From patent US12029217B2, “Safened compositions comprising pyridine carboxylate herbicides and isoxadifen” (Corteva Agriscience LLC, priority 2018, dated 2024)

Assays:
Type in all cases: in vivo
[1] = system: Matricaria chamomilla (wild chamomile); experiment: Greenhouse postemergence visual injury, wild chamomile (MATCH); conditions: Example 1
Description: (§1) Seeds of the desired test plant species were planted in a 90:10% v/v (volume/volume) mixture of PRO-MIX® BX (Premier Tech Horticulture, Quakertown, PA, USA) and PROFILE® GREENS GRADE™ (Profile Products LLC, Buffalo Grove, IL, USA) planting mixture, which typically has a pH of 5.2 to 6.2 and an organic matter content of at least 50 percent, in plastic pots with a surface area of 103.2 square centimeters (cm^2). When required to ensure good germination and healthy plants, a fungicide treatment and/or other chemical or physical treatment was applied. The plants were grown for 7-36 days (d) in a greenhouse with an approximate 14-hour (h) photo-period which was maintained at about 23° C. during the day and 22° C. during the night. Nutrients and water were added on a regular basis and supplemental lighting was provided with overhead metal halide 1000-Watt lamps as necessary. The plants were employed for testing when they reached the second or third true leaf stage.
(§2) Emulsifiable concentrates of each of each pyridine carboxylate herbicide (Compound A or Compound B) were prepared at 100 grams acid equivalent per liter (g ae/L). An aliquot of each emulsifiable concentrate was placed in a 25 mL glass vial and diluted with an aqueous mixture of 1.25% (v/v) ACTIROB® B esterified rapeseed oil (Bayer Crop Science, Research Triangle Park, NC, USA) or MSO® Concentrate with LECI-TECH® methylated soybean oil (Loveland Products, Loveland, CO, USA) to obtain concentrated stock solutions at the highest application rate for each herbicide, based upon a 12 milliliter (mL) application volume at a rate of 187 liters per hectare (L/ha). The concentrated stock solutions were further diluted with an aqueous mixture of 1.25% v/v ACTIROB® B or MSO® Concentrate with LECI-TECH® to obtain stock solutions at reduced application rates for each herbicide. Spray solutions of the herbicide combinations (Compound A or Compound B plus safener) were prepared by adding weighed amounts or aliquots of the safener to the stock solutions of Compound A or Compound B to form 12-mL spray solutions in two-way combinations.
(§3) The spray solutions were applied to the plant material with an overhead Mandel track sprayer equipped with 8002E nozzles calibrated to deliver 187 L/ha over an application area of 0.503 square meters (m^2) at a spray height of 18 inches (43 centimeters (cm)) above the average plant canopy. […]
(§4) The treated plants and control plants were placed in a greenhouse as described above and watered by sub-irrigation to prevent wash-off of the test compounds. After 20-22 d, the condition of the test plants as compared with that of the control plants was determined visually and scored on a scale of 0 to 100 percent where 0 corresponds to no injury and 100 corresponds to complete kill.

[2] = system: Salsola kali (Russian thistle); experiment: Greenhouse postemergence visual injury, Russian thistle (SASKR); conditions: Example 1
Description: as §1, §2, §3, §4

[3] = system: Saccharum officinarum (sugarcane); experiment: Greenhouse postemergence visual injury, sugarcane (SACOF); conditions: Example 3
Description: as §1, §2
(§5) The spray solutions were applied to the plant material with an overhead Mandel track sprayer equipped with 8002E nozzles calibrated to deliver 187 L/ha over an application area of 0.503 square meters (m^2) at a spray height of 18 inches (43 centimeters (cm)) above the average plant canopy. Control plants were sprayed in the same manner with the solvent blank. All herbicide (component a) application rates are given as “g ae/ha” and all safener (component b) application rates are given as “g ai/ha.”
as §4

[4] = system: Amaranthus retroflexus (pigweed); experiment: Greenhouse postemergence visual injury, pigweed (AMARE)
Description: as §1, §2, §5, §4

[5] = system: Cyperus esculentus (nutsedge); experiment: Greenhouse postemergence visual injury, nutsedge (CYPES)
Description: as §1, §2, §5, §4

[6] = system: Helianthus annuus (common sunflower); experiment: Greenhouse postemergence visual injury, common sunflower (HELAN)
Description: as §1, §2, §5, §4

[7] = system: Oryza sativa (common rice); experiment: Greenhouse postemergence visual injury, rice (ORYSA); conditions: Example 6
Description: as §1, §2, §3, §4

[8] = system: Alopecurus myosuroides (blackgrass); experiment: Greenhouse postemergence visual injury, blackgrass (ALOMY); conditions: Example 6
Description: as §1, §2, §3, §4

Avena fatua (wild oat) = experiment: Greenhouse postemergence visual injury, wild oat (AVEFA); conditions: Example 6
Description: as §1, §2, §3, §4

[9] = system: Chenopodium album L. (common lambsquarters); experiment: Greenhouse postemergence visual injury, common lambsquarters (CHEAL); conditions: Example 6
Description: as §1, §2, §3, §4

[10] = system: Digitaria sanguinalis (large crabgrass); experiment: Greenhouse postemergence visual injury, large crabgrass (DIGSA)
Description: as §1, §2, §5, §4

[11] = system: Echinochloa crus-galli (barnyardgrass); experiment: Greenhouse postemergence visual injury, barnyardgrass (ECHCG)
Description: as §1, §2, §5, §4

[12] = system: Erigeron canadensis (Canada horseweed); experiment: Greenhouse postemergence visual injury, Canada horseweed (ERICA)
Description: as §1, §2, §5, §4

Glycine max (soybean) = experiment: Greenhouse postemergence visual injury, soybean (GLXMA)
Description: as §1, §2, §5, §4

[13] = system: Leptochloa chinensis (Chinese sprangletop); experiment: Greenhouse postemergence visual injury, Chinese sprangletop (LEFCH); conditions: Example 6
Description: as §1, §2, §3, §4

[14] = system: Polygonum convolvulus (wild buckwheat); experiment: Greenhouse postemergence visual injury, wild buckwheat (POLCO); conditions: Example 6
Description: as §1, §2, §3, §4

[15] = system: Setaria faberi (giant foxtail); experiment: Greenhouse postemergence visual injury, giant foxtail (SETFA)
Description: as §1, §2, §5, §4

[16] = system: Amaranthus palmeri (glyphosate-resistant Palmer amaranth); experiment: Greenhouse postemergence visual injury, glyphosate-resistant Palmer amaranth (AMAPA-Gly); conditions: Example 7
Description: as §1, §2, §3, §4

[17] = system: Eleusine indica (goosegrass); experiment: Greenhouse postemergence visual injury, goosegrass (ELEIN); conditions: Example 7
Description: as §1, §2, §3, §4

[18] = isoxadifen-ethyl 20 g/ha, Example 4
[19] = isoxadifen-ethyl 20 g/ha, Example 5
[20] = isoxadifen-ethyl 20 g/ha, Example 6
[21] = isoxadifen-ethyl 40 g/ha, Example 4
[22] = isoxadifen-ethyl 40 g/ha, Example 5
[23] = isoxadifen-ethyl 40 g/ha, Example 6
[24] = isoxadifen-ethyl 80 g/ha, Example 4
[25] = isoxadifen-ethyl 80 g/ha, Example 5
[26] = isoxadifen-ethyl 80 g/ha, Example 6
[27] = isoxadifen-ethyl 120 g/ha, Example 4
[28] = isoxadifen-ethyl 120 g/ha, Example 5
[29] = isoxadifen-ethyl 10 g/ha, Example 7
[30] = isoxadifen-ethyl 20 g/ha, Example 7

Measured: % visual injury, Ob

CCOC(=O)C1=NOC(c2ccccc2)(c2ccccc2)C1 [Isoxadifen-ethyl, isoxadifen-ethyl]
0%: [1]; isoxadifen-ethyl 10 g/ha | [1]; isoxadifen-ethyl 20 g/ha | [1]; isoxadifen-ethyl 40 g/ha | [2]; isoxadifen-ethyl 10 g/ha | [2]; isoxadifen-ethyl 20 g/ha | [2]; isoxadifen-ethyl 40 g/ha | [3]; isoxadifen-ethyl 10 g/ha | [3]; isoxadifen-ethyl 20 g/ha | [3]; isoxadifen-ethyl 40 g/ha | [3]; isoxadifen-ethyl 80 g/ha | [4]; [18] | [4]; [19] | [4]; [20] | [4]; [21] | [4]; [22] | [4]; [23] | [4]; [24] | [4]; [25] | [4]; [26] | [4]; [27] | [4]; [28] | [5]; [18] | [5]; [19] | [5]; [20] | [5]; [21] | [5]; [22] | [5]; [23] | [5]; [24] | [5]; [25] | [5]; [26] | [5]; [27] | [5]; [28] | [6]; [18] | [6]; [19] | [6]; [20] | [6]; [21] | [6]; [22] | [6]; [23] | [6]; [24] | [6]; [25] | [6]; [26] | [6]; [27] | [6]; [28] | [7]; isoxadifen-ethyl 20 g/ha | [7]; isoxadifen-ethyl 40 g/ha | [7]; isoxadifen-ethyl 80 g/ha | [8]; isoxadifen-ethyl 20 g/ha | [8]; isoxadifen-ethyl 40 g/ha | [8]; isoxadifen-ethyl 80 g/ha | Avena fatua (wild oat); isoxadifen-ethyl 20 g/ha | Avena fatua (wild oat); isoxadifen-ethyl 40 g/ha | Avena fatua (wild oat); isoxadifen-ethyl 80 g/ha | [9]; isoxadifen-ethyl 20 g/ha | [9]; isoxadifen-ethyl 40 g/ha | [9]; isoxadifen-ethyl 80 g/ha | [10]; [29] | [10]; [20] | [10]; [30] | [10]; [23] | [10]; [26] | [11]; [29] | [11]; [20] | [11]; [30] | [11]; [23] | [11]; [26] | [12]; [29] | [12]; [20] | [12]; [30] | [12]; [23] | [12]; [26] | Glycine max (soybean); [29] | Glycine max (soybean); [20] | Glycine max (soybean); [30] | Glycine max (soybean); [23] | Glycine max (soybean); [26] | [13]; isoxadifen-ethyl 20 g/ha | [13]; isoxadifen-ethyl 40 g/ha | [13]; isoxadifen-ethyl 80 g/ha | [14]; isoxadifen-ethyl 20 g/ha | [14]; isoxadifen-ethyl 40 g/ha | [14]; isoxadifen-ethyl 80 g/ha | [15]; [29] | [15]; [20] | [15]; [30] | [15]; [23] | [15]; [26] | [16]; isoxadifen-ethyl 10 g/ha | [16]; isoxadifen-ethyl 20 g/ha | [17]; isoxadifen-ethyl 10 g/ha | [17]; isoxadifen-ethyl 20 g/ha

N#CCOC(=O)c1nc(-c2ccc3cc[nH]c3c2F)c(F)c(N)c1Cl [Compound A, cyanomethyl 4-amino-3-chloro-5-fluoro-6-(7-fluoro-1H-indol-6-yl)pyridine-2-carboxylate]
50%: [1]; Compound A 20 g/ha
88%: [9]; Compound A 20 g/ha
0%: [8]; Compound A 20 g/ha | Avena fatua (wild oat); Compound A 20 g/ha
10%: [7]; Compound A 20 g/ha
28%: [10]; Compound A 10 g/ha, Example 7
18%: [3]; Compound A 5 g/ha
85%: [11]; Compound A 20 g/ha, Example 6 | [15]; Compound A 10 g/ha, Example 7
100%: [4]; Compound A 40 g/ha, Example 4 | [4]; Compound A 40 g/ha, Example 5 | [6]; Compound A 40 g/ha, Example 4 | [6]; Compound A 40 g/ha, Example 5 | [11]; Compound A 10 g/ha, Example 7 | [11]; Compound A 20 g/ha, Example 7 | Glycine max (soybean); Compound A 10 g/ha, Example 7 | Glycine max (soybean); Compound A 20 g/ha, Example 6 | Glycine max (soybean); Compound A 20 g/ha, Example 7 | [14]; Compound A 20 g/ha | [16]; Compound A 10 g/ha | [16]; Compound A 20 g/ha
48%: [3]; Compound A 10 g/ha
73%: [5]; Compound A 40 g/ha, Example 4 | [5]; Compound A 40 g/ha, Example 5 | [17]; Compound A 10 g/ha
30%: [5]; Compound A 20 g/ha, Example 6 | [10]; Compound A 20 g/ha, Example 6
93%: [4]; Compound A 20 g/ha, Example 6 | [17]; Compound A 20 g/ha
90%: [12]; Compound A 10 g/ha, Example 7
40%: [10]; Compound A 20 g/ha, Example 7
55%: [3]; Compound A 20 g/ha
95%: [6]; Compound A 20 g/ha, Example 6 | [12]; Compound A 20 g/ha, Example 6 | [12]; Compound A 20 g/ha, Example 7 | [15]; Compound A 20 g/ha, Example 7
60%: [2]; Compound A 20 g/ha | [3]; Compound A 40 g/ha | [13]; Compound A 20 g/ha
65%: [15]; Compound A 20 g/ha, Example 6
